Consider 33 compounds from PMC11995724, “Antibiotic target discovery by integrated phenotypic and activity-based profiling of electrophilic fragments” (Cell chemical biology, 2025).

This data set is described as follows: in vitro. The settings on record: human, hek293t cells.
As a reminder, the viability is a read-out of living cells in per cent, often relative to untreated cells. Take `CC(NC(=O)C(C#N)=Cc1ccco1)c1cccnc1` (stereo not drawn) [9-K03, 2-cyano-3-(furan-2-yl)-N-[1-(pyridin-3-yl)ethyl]prop-2-enamide]: the viability at 48 h, 25 µM came to 129%.
As for `N#CC(=Cc1ccc(OC(F)F)cc1)C(=O)Nc1cccnc1` [9-K04, 2-cyano-3-[4-(difluoromethoxy)phenyl]-N-(pyridin-3-yl)prop-2-enamide], the viability at 48 h, 25 µM was determined as 115%.
In the case of `CCc1nsc(N2CCN(C(=O)C(C#N)=Cc3ccco3)CC2)n1` [9-K05, 2-[4-(3-ethyl-1,2,4-thiadiazol-5-yl)piperazine-1-carbonyl]-3-(furan-2-yl)prop-2-enenitrile] it was 121%.
To `N#CC(=Cc1c(Cl)cccc1Cl)C(=O)NCc1ccco1` [9-K06, 2-cyano-3-(2,6-dichlorophenyl)-N-[(furan-2-yl)methyl]prop-2-enamide] belongs 29.2%; to `CC(C)NC(=O)C(C#N)=Cc1ccc(Cl)cc1Cl` [9-K07, 2-cyano-3-(2,4-dichlorophenyl)-N-(propan-2-yl)prop-2-enamide], 49.5%.
In the case of `Cc1ccc(C=C(C#N)C(=O)Nc2ccccc2C(=O)O)s1` [9-K08, 2-[2-cyano-3-(5-methylthiophen-2-yl)prop-2-enamido]benzoic acid] it was 104%; in that of `N#CC(=Cc1cccc(F)c1)C(=O)NCc1ccccc1` [9-K09, N-benzyl-2-cyano-3-(3-fluorophenyl)prop-2-enamide], 109%; in that of `N#CC(=Cc1ccc2ccccc2c1)C(=O)NC(N)=O` [9-K10, {2-cyano-2-[(naphthalen-2-yl)methylidene]acetyl}urea], 116%.
`COc1cc(C=C(C#N)C(=O)NC(C)C)cc(Cl)c1O` [9-K11, 3-(3-chloro-4-hydroxy-5-methoxyphenyl)-2-cyano-N-(propan-2-yl)prop-2-enamide]: the viability at 48 h, 25 µM came out at 115%.
On to `N#CC(=Cc1ccc(N2CCCC2)cc1)C(=O)N1CCC(C(N)=O)CC1` [9-K12, 1-(2-cyano-2-{[4-(pyrrolidin-1-yl)phenyl]methylidene}acetyl)piperidine-4-carboxamide], for which the viability at 48 h, 25 µM was determined as 108%.
Turning to `COc1cc(C=C(C#N)C(N)=O)cc(OC)c1OC` [9-K13, 2-cyano-3-(3,4,5-trimethoxyphenyl)prop-2-enamide], the viability at 48 h, 25 µM stood at 129%.
As to `N#CC(=Cc1cccnc1)C(=O)NCCc1ccccc1` [9-K14, 2-cyano-N-(2-phenylethyl)-3-(pyridin-3-yl)prop-2-enamide], the viability at 48 h, 25 µM turned out to be 89.3%.
With `Cc1ccc(C=C(C#N)C(=O)NC2CC2)s1` [9-K15, 2-cyano-N-cyclopropyl-3-(5-methylthiophen-2-yl)prop-2-enamide], the viability at 48 h, 25 µM turned out to be 126%.
For the compound `N#CC(=Cc1ccc(-c2ccc(Cl)cc2)o1)C(=O)NC1CC1` [9-K16, 3-[5-(4-chlorophenyl)furan-2-yl]-2-cyano-N-cyclopropylprop-2-enamide], the viability at 48 h, 25 µM worked out at 91%.
With `Cc1ccc(NC(=O)C(C#N)=Cc2ccccc2OC(F)F)c(C)c1` [9-K17, 2-cyano-3-[2-(difluoromethoxy)phenyl]-N-(2,4-dimethylphenyl)prop-2-enamide], the viability at 48 h, 25 µM was 94.9%.
Take `CC1=C(C#N)C(=O)N(C)C(=O)C1=Cc1ccc(-c2ccccc2Cl)o1` [9-K18, 5-{[5-(2-chlorophenyl)furan-2-yl]methylidene}-1,4-dimethyl-2,6-dioxo-1,2,5,6-tetrahydropyridine-3-carbonitrile]: the viability at 48 h, 25 µM is 126%.
Take `N#CC(=Cc1ccccc1OC(F)F)C(=O)Nc1nccs1` [9-K19, 2-cyano-3-[2-(difluoromethoxy)phenyl]-N-(1,3-thiazol-2-yl)prop-2-enamide]: the viability at 48 h, 25 µM turned out to be 119%.
To `N#CC(=Cc1ccc2c(c1)OCCO2)C(=O)Nc1ccc(F)cc1` [9-K20, 2-cyano-3-(2,3-dihydro-1,4-benzodioxin-6-yl)-N-(4-fluorophenyl)prop-2-enamide] belongs 114%; to `N#CC(=Cc1ccc([N+](=O)[O-])cc1)C(=O)Nc1cccc2ncccc12` [9-K21, 2-cyano-3-(4-nitrophenyl)-N-(quinolin-5-yl)prop-2-enamide], 114%; to `CCOc1cc(C=C(C#N)C(=O)Nc2nccs2)cc(Cl)c1O` [9-K22, 3-(3-chloro-5-ethoxy-4-hydroxyphenyl)-2-cyano-N-(1,3-thiazol-2-yl)prop-2-enamide], 110%.
Turning to `COc1ccc(NC(=O)C(C#N)=Cc2cnc3c(C)cccn23)cc1` [9-L03, 2-cyano-N-(4-methoxyphenyl)-3-{8-methylimidazo[1,2-a]pyridin-3-yl}prop-2-enamide], the viability at 48 h, 25 µM was determined as 111%.
On to `CCCCNC(=O)C(C#N)=Cc1c[nH]nn1` [9-L04, N-butyl-2-cyano-3-(1H-1,2,3-triazol-4-yl)prop-2-enamide], for which the viability at 48 h, 25 µM is 116%.
With `CSc1ccc(C=C(C#N)C(=O)Nc2ccc3c(c2)OCCO3)cc1` [9-L05, 2-cyano-N-(2,3-dihydro-1,4-benzodioxin-6-yl)-3-[4-(methylsulfanyl)phenyl]prop-2-enamide], the viability at 48 h, 25 µM is 114%.
Regarding `C=CCNC(=O)C(C#N)=Cc1ccc2c(c1)OCCO2` [9-L06, 2-cyano-3-(2,3-dihydro-1,4-benzodioxin-6-yl)-N-(prop-2-en-1-yl)prop-2-enamide], the viability at 48 h, 25 µM was 86.7%.
Take `C=CCNC(=O)C(C#N)=Cc1c(C)nn(-c2ccc(F)cc2)c1Cl` [9-L07, 3-[5-chloro-1-(4-fluorophenyl)-3-methyl-1H-pyrazol-4-yl]-2-cyano-N-(prop-2-en-1-yl)prop-2-enamide]: the viability at 48 h, 25 µM stood at 91.8%.
As to `N#CC(=Cc1cccs1)C(=O)NCc1ccco1` [9-L08, 2-cyano-N-[(furan-2-yl)methyl]-3-(thiophen-2-yl)prop-2-enamide], the viability at 48 h, 25 µM turned out to be 110%.
With `N#CC(=Cc1ccco1)C(=O)NC1CCN(c2ccc(F)cc2F)C1` (stereo not drawn) [9-L09, 2-cyano-N-[1-(2,4-difluorophenyl)pyrrolidin-3-yl]-3-(furan-2-yl)prop-2-enamide], the viability at 48 h, 25 µM came to 111%.
In the case of `C=CCNC(=O)C(C#N)=Cc1cccc2ccccc12` [9-L10, 2-cyano-3-(naphthalen-1-yl)-N-(prop-2-en-1-yl)prop-2-enamide] it was 96.5%.
In the case of `N#CC(=Cc1cccs1)C(=O)Nc1ccccc1Cl` [9-L11, N-(2-chlorophenyl)-2-cyano-3-(thiophen-2-yl)prop-2-enamide], the viability at 48 h, 25 µM amounted to 112%.
For `N#CC(=Cc1ccc(OC(F)F)c(Cl)c1)C(N)=O` [9-L12, 3-[3-chloro-4-(difluoromethoxy)phenyl]-2-cyanoprop-2-enamide], the viability at 48 h, 25 µM turned out to be 106%.
Regarding `N#CC(=Cc1cccc(Cl)c1)C(=O)NCc1ccccc1` [9-L13, N-benzyl-3-(3-chlorophenyl)-2-cyanoprop-2-enamide], the viability at 48 h, 25 µM is 39.5%.
As for `CNC(=O)C(C#N)=Cc1cccc(-c2ccncc2)c1` [9-L14, 2-cyano-N-methyl-3-[3-(pyridin-4-yl)phenyl]prop-2-enamide], the viability at 48 h, 25 µM came to 108%.
Consider `Cn1cc(C=C(C#N)C(=O)Nc2ccccc2F)c(-c2ccncc2)n1` [9-L15, 2-cyano-N-(2-fluorophenyl)-3-[1-methyl-3-(pyridin-4-yl)-1H-pyrazol-4-yl]prop-2-enamide], for which the viability at 48 h, 25 µM is 130%.
